Test results from patent US20220218714A1, “METHOD OF TREATING CANCER” (Epizyme, Inc., priority 2013, published 2022).

Key:
[1] = tested on: H3K27me3 in SW982 cells; assay: H3K27 methylation alterations, ELISA of extracted histones; format: cell-based, human; details: 96 hours treatment
Protocol: (§1) HS-SY-II and SW982 cells were treated with either DMSO or Compound A starting at 40 nmol/L and decreasing in fourfold dilutions for 96 hours. Cells were washed by ice cold PBS, harvested by cell scraper, and lysed with 100 μL of nuclear extraction buffer (10 mM Tris-HCl, 10 mM MgCl2, 25 mM KCl, 1% Triton X-100, 8.6% Sucrose, plus × Halt Protease inhibitor cocktail (1861281, Thermo Scientific). Nuclei were collected by centrifugation at 600 g for 5 minutes at 4° C. and washed once with ice cold PBS. Supernatant was removed and histones extracted for one hour with 100 μL of 0.4 N cold sulfuric acid. Extracts were clarified by centrifugation at 10,000 g for 10 minutes at 4° C. and transferred to a fresh microcentrifuge tube containing 1 mL of ice cold acetone. Histones were precipitated at −20° C. for overnight, pelleted by centrifugation at 10,000 g for 10 minutes and resuspended in 100 μl of water. Histones were quantified using the BCA protein assay (23225, Pierce). The diluted histones were coated on Immulon 4HBX plates (3855, Thermo Scientific) overnight and ELISA was performed. […] Subsequently, the developed colors in the wells were measured using a plate spectrophotometer (SpectraMax 250, Molecular Devices) at 450 nm (reference wavelength 650 nm).
(§2) The range of ICso values (two independent experiments), shown in FIG. 6B, were determined by GraphPad Prism (GraphPad Software).

[2] = tested on: H3K27me3 in HS-SY-II cells; assay: as above; format: cell-based, human; details: 96 hours treatment
Protocol: as §1, §2

[3] = tested on: H3K27me3 in HS-SY-II xenograft; assay: H3K27me3 ELISA of HS-SY-II xenograft tumors harvested on Day 28; format: in vivo, athymic nude mice; details: Day 28, 3 h after the last dose; second study
Protocol: FIGS. 10A to 10C show mean in vivo tumor volumes for athymic nude mice bearing HS-SY-II xenografts. In a first study, mice were dosed with either vehicle (oral for 28 days or iv on Day 1 and Day 22), Compound A (oral: 125 mg/kg, 250 mg/kg, or 500 mg/kg for 28 days), or Doxorubicin (iv: 10 mg/kg, Day 1 and Day 22); tumor volumes were measured twice a week (FIGS. 10A and 10B). In a second study, mice were dosed with either vehicle (oral for 28 days), Compound A (oral: 250 mg/kg or 500 mg/kg for 28 days), Doxorubicin (iv: 10 mg/kg on Day 1 and Day 22), or a combination of Doxorubicin (iv: 10 mg/kg on Day 1 and Day 22) and Compound A (oral: 250 mg/kg for 28 days) (FIG. 10C). Tumors from animals of the second study were harvested on Day 28 (3 h after the last dose) and subjected to H3K27me3 analysis by ELISA (FIG. 10D) or IHC for the proliferation marker Ki67 (FIG. 10E).
For FIG. 10D, tumors were snap-frozen in liquid nitrogen. […] Histones were quantified using the BCA protein assay (23225, Pierce). […] Subsequently, the developed colors in the wells were measured using a plate spectrophotometer (SpectraMax 250, Molecular Devices) at 450 nm (reference wavelength 650 nm). The H3K27me3 levels were adjusted to total histone H3, and expressed as fold changes to vehicle control. […] Histones were extracted and quantified, and the levels of H3K27me3 were analyzed as described above. […]

SMILES: CCN(c1cc(-c2ccc(CN3CCOCC3)cc2)cc(C(=O)NCc2c(C)cc(C)[nH]c2=O)c1C)C1CCOCC1 [Compound A]
- ratio of H3K27me3/total H3 (ratio to control) [1]: decreased
- ratio of H3K27me3/total H3 (ratio to control) [2]: decreased
- H3K27me3 levels in tumors (fold change to vehicle control) [3]: significantly reduced
